From patent US5332734A, “Oxazinone derivative” (Japan Tobacco, Incorporated, priority 1991, dated 1994)

Legend:
[1] = target: T1, human leukocyte elastase (HLE) (Homo sapiens, UniProt P08246); experiment: HLE inhibitory activity; assay type: biochemical; settings: HLE 5.63 nM, substrate 0.2625 mM, pH 8.6, 37° C.
T1 construct: applying a density gradient centrifugal operation so as to obtain neutrophils; from tissue; host or cells: neutrophils from human venous blood
T1 sequence (P08246 30-267): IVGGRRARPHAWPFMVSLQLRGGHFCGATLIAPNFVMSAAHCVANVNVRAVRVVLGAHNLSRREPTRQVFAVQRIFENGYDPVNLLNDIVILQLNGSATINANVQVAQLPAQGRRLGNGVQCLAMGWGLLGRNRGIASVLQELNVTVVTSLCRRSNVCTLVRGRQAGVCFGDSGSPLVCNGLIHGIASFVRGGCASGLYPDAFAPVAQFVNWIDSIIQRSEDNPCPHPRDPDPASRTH
Description: Inhibotory activities of the oxadinone derivative of the present invention against human leukocyte elastase (HLE), human sputum elastase (HSE), human cathepsin G (HCG), bovine pancreatic α-chymotrypsin (CYT) and bovine pancreatic trypsin (TRY) were measured as follows:
(1) Measurement of HLE Inhibitory Activity
A buffy coat was obtained by subjecting human vein blood to centrifugal separation, followed by adding distilled water to the buffy coat thus obtained for performing a low tension treatment so as to collapse erythrocytes. A mixture consisting of 10 parts of a 33.4% Conrey 400 solution and 24 parts of 9% of Ficoll solution was added to the residual blood cell component, followed by applying a density gradient centrifugal operation so as to obtain neutrophils. The neutrophil fraction was washed three times with Hanks' buffer so as to recover cells, which were frozen at -80° C. for preservation until the cells were used. The cells preserved under a frozen state were thawed with warm water of 37° C. and suspended in the lysis buffer (0.1M Tris-HCl pH 7.5, 1M MgCl2, 0.1% Brij 35), the amount of the buffer being 9 times as much as that of the cells. Then, the suspended cells were collapsed with polotron while cooling the suspension with ice. Then, the suspension was subjected to a centrifugal separation at 100,000×g for one hour so as to remove the precipitate. Also, a buffer (5 mM Tris-HCl pH 7.5, 1M NaCl, 1.1% Brij 35) was added to the supernatant in an amount twice as much as the supernatant so as to prepare a crude solution of an enzyme extract. The crude solution of an enzyme extract was adsorbed on an aprotinin affinity column. Further, the active fraction eluted with a 50 ml glycine-HCl solution (pH 3.3, 1M NaCl, 0.1% Brij 35) was passed through a MONO S ion-exchange chromatography. The active fraction eluted with a 2M NaCl linear gradient was dialyzed and, then, subjected to a freeze-drying so as to prepare an enzyme sample.
A test compound to be detected was dissolved in DMSO (for fluorometry) so as to prepare solutions of various concentrations. Then, the solution of 0.2M Tris-HCl (pH 9.6) was added to each of the solutions in an amount twice as much as the solution so as to prepare a test solution. On the other hand, a synthetic substrate (MeOSuc-Ala-Pro-Val-pNA; FUNAKOSHI) was dissolved in DMSO, followed by adding 0.2M tris-HCl solution (pH 8.6) to the solution in an amount twice as much as the solution so as to prepare a substrate solution.
A microplate (NUNK) provided with 96 wells was used for the reaction. The reaction was repeatedly carried out 6 times for each concentration of the test compound. Each of 140 μl of the enzyme solution (0.2M Tris-HCl, pH 8.6), 30 μl of the test material solution and 30 μl of the substrate solution was pre-incubated for 10 minutes at 37° C. for each well of the microplate. After incubation of a mixture of the enzyme solution and the test material solution for 10 minutes, the substrate solution was added so as to carry out the enzyme reaction. For determining the substrate decomposition, the absorbance (405 run) of the released pNA was measured by a microplate reader (MTP-100; CORONA), and the substrate decomposition was calculated on the basis of the average value of the absorbances repeatedly measured 6 times. The inhibitory concentration of the test compound relative to the decomposition amount of the substrate in the case where the test compound was not added was obtained as IC50 value.

[2] = test system: neutrophil infiltration into carrageenin-induced air pouch inflammation; experiment: Suppressing neutrophil infiltration into carrageenin-induced air pouch inflammation; assay type: in vivo, SD series male rats; settings: 17 μmol into air pouch, 5 hours; for Cell Infiltration Capability: control = 100
Description: Test: 3 Effect of the Invented Compound for Suppressing Neutrophil Infiltration into carrageenin-induced Air Pouch Inflammation
Groups of SD series male rats (5 five weeks old and each weighing 110 to 130 g) were used in this experiment, each group consisting of five rats. In the first step, an air bladder was formed on the back of the rat by hypodermic injection of 8 ml of air while anesthetizing the rat with either. Twenty-four hours later, 5 ml of a physiological saline containing 1% of carrageenin manufactured by Wako K.K. was injected into the air pouch. Promptly after the carrageenin injection, a solution prepared by dissolving the test material (compound of the present invention) in 200 μl of DMSO (dimethylsulfoxide) was administered to the air pouch on the back of the rat.
Five hours later, the rat was killed and the blood was released therefrom. Then, 5 ml of PBS containing 10 mM of EDTA (ethylenediamine tetraacetate) was injected into the air pouch. The exudate within the air bladder was washed and, then, recovered. A predetermined amount of the recovered exudate was measured by a colter counter so as to count the number of infiltrated cells.
The effect of the test material for suppressing the cell infiltration into the carrageenin induced inflammation was determined by the formula given below, in which the value obtained by subtracting the number of infiltrated cells in the experiment in which carrageenin was not administered from the number of infiltrated cells in the reference group in which a medicine was not administered was set at 100:
= 100 - (U - V)/(W - V) × 100
S: Cell infiltration capability in the case of containing the compound of the present invention;
T: Cell infiltration capability in the case of not containing the compound of the present invention;
U: The number of infiltrated cells in the case of administering the compound of the present invention and carrageenin;
V: The number of infiltrated cells in the case of not adding carrageenin; and
W: The number of infiltrated cells in the case of administering carrageenin only.

Row | Structure (SMILES) | IC50 [1] [nM] | Rate (%) of Suppressing Cell Infiltration [2] [%] | Cell Infiltration Capability [2]
1 | Cc1cccc2nc([C@@H](NC(=O)OCC3c4ccccc4-c4ccccc43)C(C)C)oc(=O)c12 [Compound 1, 2-{1(S)-[(9-fluorenylmethoxycarbonyl)amino]-2-methylpropyl}-5-methyl-4H-3,1-benzoxazin-4-one] | 240 | 38 | 62
2 | Cc1cccc2nc([C@H](CC(C)C)NC(=O)OCC3c4ccccc4-c4ccccc43)oc(=O)c12 [Compound 2, 2-{1(S)-[(9-fluorenylmethoxycarbonyl)amino]-3-methylbutyl}-5-methyl-4H-3,1-benzoxazin-4-one] | 730 | 24 | 76
